The target of the experiment is T1, c-kit mutant D816V (Homo sapiens, UniProt P10721, D816V/DEL694-753).
T1 construct: residues 551-934, kinase insertion domain residues 694-753 deleted; 6x-histidine (N); made in house; host or cells: E. coli Arctic Express (DE3) RIL (Stratagene)
T1 sequence (P10721 with tags, fused parts or gaps DEL694-753/D816V): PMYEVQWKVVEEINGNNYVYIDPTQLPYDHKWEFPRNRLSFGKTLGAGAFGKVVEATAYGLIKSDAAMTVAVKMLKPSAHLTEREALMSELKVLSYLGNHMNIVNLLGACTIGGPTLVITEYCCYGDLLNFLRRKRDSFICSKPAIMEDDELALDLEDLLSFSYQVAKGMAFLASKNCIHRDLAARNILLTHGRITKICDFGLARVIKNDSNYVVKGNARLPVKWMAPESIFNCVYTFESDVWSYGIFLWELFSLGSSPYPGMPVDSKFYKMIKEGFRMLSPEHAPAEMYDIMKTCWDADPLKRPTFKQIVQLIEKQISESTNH
Kind of experiment: c-Kit mutant D816V biochemical assay, AlphaScreen. The note with it: c-kit D816V biochemical inhibitory activity; read-out: Biochemical activity (IC50 μM) Kit D816V. How it is done: Compounds to be tested were dissolved in DMSO to a concentration of 20 mM. These were diluted 30 μl into 120 μl of DMSO (4 mM) and 1 μl was added to an assay plate. These were then serially diluted 1:3 (50 μl to 100 μl DMSO) for a total of 8 points. Plates were prepared such that each kinase reaction is 20 μl in 1× kinase buffer (25 mM HEPES, pH 7.2, 8 mM MgCl2, 2 mM MnCl2, 50 mM NaCl, 0.01% Brij, 1 mM DTT, 0.01% BSA), 5% DMSO and 10 μM ATP. […] After incubation of the kinase reaction for 30 minutes at room temperature, 5 μl of donor beads (Streptavidin coated beads (Perkin Elmer Life Science) final concentration 7.5 μg/ml) in stop buffer (25 mM Hepes pH 7.5, 100 mM EDTA, 0.01% BSA) was added, the sample was mixed and incubated for 20 minutes at room temperature before adding 5 μl of acceptor beads (PY20 coated beads (Perkin Elmer Life Science) final concentration 7.5 μg/ml) in stop buffer. The samples were incubated for 60 minutes at room temperature and the signal per well was read on EnVision reader. […] The signal vs. compound concentration was used to determine the IC50.
Cells were grown in Terrific Broth (TB) media to an OD600 of 0.6 at 37° C. at which temperature was reduced to 10° C., protein was induced with 1.0 mM IPTG for 18 hours and harvested by centrifugation at 8000×g for 20 minutes. Cells were re-suspended in 0.1M KPO4 pH 8.0, 250 mM NaCl, 10% Glycerol, 0.75% NP-40, 25 mM Imidazole, 5 mM BME with 0.2 mg/ml Lysosyme, 2.0 mM PMSF, 25 μg/ml DNAse I, incubated in ice for 30 minutes and lysed with a cell disruptor (MicroFluidics). The lysate was clarified by centrifugation at 20,000×g for 2 hours. The protein was captured with Talon resin (Clontech). Contaminating proteins were washed off with 25 mM Tris-HCl pH 8.3, 250 mM NaCl, 15% Glycerol, 1% Triton X-100, and protein eluted using 100 mM EDTA. The protein was further purified using Gel Filtration column 26/600 Superdex 200 (GE) in 50 mM Tris-HCl, pH 8.0, 250 mM NaCl, 15% Glycerol, 5 mM BME. The protein was aliquoted and flash-frozen in liquid Nitrogen.
On the technique in general: In Alpha technology, singlet oxygen from a donor bead excites a nearby acceptor bead.
On to `CC(NC(=O)N1CCN(c2ncnc3[nH]c(-c4ccc(Cl)cc4)cc23)C[C@H]1C)c1ccc(Cl)cc1` (stereo in doubt) [P-0021, (2R)-N-[(1S)-1-(4-chlorophenyl)ethyl]-4-[6-(4-chlorophenyl)-7H-pyrrolo[2,3-d]pyrimidin-4-yl]-2-methyl-piperazine-1-carboxamide], for which the IC50 lay in the range of 1 to 10 µM.

As for `CC(C)(C)Oc1ccc(NC(=O)N2CCN(c3ncnc4[nH]c(-c5ccc(Cl)cc5)cc34)CC2)cc1` [P-0017, N-(4-tert-butoxyphenyl)-4-[6-(4-chlorophenyl)-7H-pyrrolo[2,3-d]pyrimidin-4-yl]piperazine-1-carboxamide], the IC50 was in the range of 10 to 200 µM.

Consider `C[C@@H]1CN(c2ncnc3[nH]c(-c4ccc(Cl)cc4)cc23)CCN1C(=O)N[C@H](C)c1ccc(F)cc1` [P-0022, (2R)-4-[6-(4-chlorophenyl)-7H-pyrrolo[2,3-d]pyrimidin-4-yl]-N-[(1R)-1-(4-fluorophenyl)ethyl]-2-methyl-piperazine-1-carboxamide], for which the half-maximal inhibitory concentration (IC50) was in the range of 0.0001 to 1 µM.

With `COc1cccc([C@@H](C)NC(=O)N2CCN(c3ncnc4[nH]c(-c5ccc(Cl)cc5)cc34)C[C@H]2C)c1` [P-0025, (2R)-4-[6-(4-chlorophenyl)-7H-pyrrolo[2,3-d]pyrimidin-4-yl]-N-[(1R)-1-(3-methoxyphenyl)ethyl]-2-methyl-piperazine-1-carboxamide], the 50% inhibitory concentration (IC50) was in the range of 10 to 200 µM.

Turning to `O=S(=O)(NN1CCN(c2ncnc3[nH]c(-c4ccc(F)cc4)cc23)CC1)c1ccc(OC(F)(F)F)cc1` [P-0026, N-[4-[6-(4-fluorophenyl)-7H-pyrrolo[2,3-d]pyrimidin-4-yl]piperazin-1-yl]-4-(trifluoromethoxy)benzenesulfonamide], the IC50 was in the range of 10 to 200 µM.

With `C[C@H](NC(=O)N1CCN(c2ncnc3[nH]c(-c4ccc(F)cc4)cc23)CC1)c1cccc(C(F)(F)F)c1` [P-0033, 4-[6-(4-fluorophenyl)-7H-pyrrolo[2,3-d]pyrimidin-4-yl]-N-[(1S)-1-[3-(trifluoromethyl)phenyl]ethyl]piperazine-1-carboxamide], the IC50 was 0.0001 to 1 µM.

With `C[C@@H]1CN(c2ncnc3[nH]c(-c4ccc(F)cc4)cc23)CCN1C(=O)N[C@H](C)c1ccc(F)cc1` [P-0034, (2R)-N-[(1R)-1-(4-fluorophenyl)ethyl]-4-[6-(4-fluorophenyl)-7H-pyrrolo[2,3-d]pyrimidin-4-yl]-2-methyl-piperazine-1-carboxamide], the IC50 was in the range of 1 to 10 µM.

As for `C[C@H](NC(=O)N1CCN(c2ncnc3[nH]c(-c4ccc(F)cc4)cc23)CC1)c1cccc(F)c1` [P-0036, N-[(1S)-1-(3-fluorophenyl)ethyl]-4-[6-(4-fluorophenyl)-7H-pyrrolo[2,3-d]pyrimidin-4-yl]piperazine-1-carboxamide], the IC50 was 0.0001 to 1 µM.

`O=C(NCc1cccc(OC(F)F)c1)N1CCN(c2ncnc3[nH]c(-c4ccc(Cl)cc4)cc23)CC1` [P-0037, 4-[6-(4-chlorophenyl)-7H-pyrrolo[2,3-d]pyrimidin-4-yl]-N-[[3-(difluoromethoxy)phenyl]methyl]piperazine-1-carboxamide]: the IC50 fell in the range of 1 to 10 µM.

With `COc1cccc([C@H](C)NC(=O)N2CCN(c3ncnc4[nH]c(-c5ccc(Cl)cc5)cc34)CC2)c1` [P-0038, 4-[6-(4-chlorophenyl)-7H-pyrrolo[2,3-d]pyrimidin-4-yl]-N-[(1S)-1-(3-methoxyphenyl)ethyl]piperazine-1-carboxamide], the IC50 is 0.0001 to 1 µM.

`Cc1ccc(NC(=O)N2CCN(c3ncnc4[nH]c(-c5ccncc5)cc34)C[C@@H]2C)cn1` [P-0039, (2S)-2-methyl-N-(6-methyl-3-pyridyl)-4-[6-(4-pyridyl)-7H-pyrrolo[2,3-d]pyrimidin-4-yl]piperazine-1-carboxamide]: the IC50 was in the range of 1 to 10 µM.

With `C[C@H]1CN(c2ncnc3[nH]c(-c4ccncc4)cc23)CCN1C(=O)NCc1cccc(Cl)c1` [P-0040, (2S)-N-[(3-chlorophenyl)methyl]-2-methyl-4-[6-(4-pyridyl)-7H-pyrrolo[2,3-d]pyrimidin-4-yl]piperazine-1-carboxamide], the IC50 lay in the range of 0.0001 to 1 µM.

Take `C[C@H]1CN(c2ncnc3[nH]c(-c4ccncc4)cc23)CCN1C(=O)NCc1ccc(F)cc1` [P-0041, (2S)-N-[(4-fluorophenyl)methyl]-2-methyl-4-[6-(4-pyridyl)-7H-pyrrolo[2,3-d]pyrimidin-4-yl]piperazine-1-carboxamide]: the IC50 is 0.0001 to 1 µM.

For the molecule `CC[C@H](NC(=O)N1CCN(c2ncnc3[nH]c(-c4ccncc4)cc23)C[C@@H]1C)c1ccccc1` [P-0048, (2S)-2-methyl-N-[(1S)-1-phenylpropyl]-4-[6-(4-pyridyl)-7H-pyrrolo[2,3-d]pyrimidin-4-yl]piperazine-1-carboxamide], the IC50 was 0.0001 to 1 µM.

Consider `C[C@H](NC(=O)N1CCN(c2ncnc3[nH]c(-c4ccncc4)cc23)C[C@@H]1C)c1ccc(F)cc1` [P-0049, (2S)-N-[(1S)-1-(4-fluorophenyl)ethyl]-2-methyl-4-[6-(4-pyridyl)-7H-pyrrolo[2,3-d]pyrimidin-4-yl]piperazine-1-carboxamide], for which the IC50 fell in the range of 0.0001 to 1 µM.

Turning to `C[C@H](NC(=O)N1CCN(c2ncnc3[nH]c(-c4ccncc4)cc23)C[C@@H]1C)c1ccc(Cl)cc1` [P-0050, (2S)-N-[(1S)-1-(4-chlorophenyl)ethyl]-2-methyl-4-[6-(4-pyridyl)-7H-pyrrolo[2,3-d]pyrimidin-4-yl]piperazine-1-carboxamide], the IC50 is 0.0001 to 1 µM.

Consider `COc1cccc([C@H](C)NC(=O)N2CCN(c3ncnc4[nH]c(-c5ccncc5)cc34)C[C@@H]2C)c1` [P-0051, (2S)-N-[(1S)-1-(3-methoxyphenyl)ethyl]-2-methyl-4-[6-(4-pyridyl)-7H-pyrrolo[2,3-d]pyrimidin-4-yl]piperazine-1-carboxamide], for which the IC50 is 0.0001 to 1 µM.

`CC[C@H](NC(=O)N1CCN(c2ncnc3[nH]c(-c4ccncc4)cc23)C[C@H]1C)c1ccccc1` [P-0054, (2R)-2-methyl-N-[(1S)-1-phenylpropyl]-4-[6-(4-pyridyl)-7H-pyrrolo[2,3-d]pyrimidin-4-yl]piperazine-1-carboxamide]: the IC50 lay within 0.0001 to 1 µM.

With `Cc1ccc(NC(=O)N2CCN(c3ncnc4[nH]c(-c5ccncc5)cc34)C[C@H]2C)cn1` [P-0055, (2R)-2-methyl-N-(6-methyl-3-pyridyl)-4-[6-(4-pyridyl)-7H-pyrrolo[2,3-d]pyrimidin-4-yl]piperazine-1-carboxamide], the IC50 lay within 0.0001 to 1 µM.

On to `COc1cccc([C@H](C)NC(=O)N2CCN(c3ncnc4[nH]c(-c5ccc(C#N)cc5)cc34)CC2)c1` [P-0069, 4-[6-(4-cyanophenyl)-7H-pyrrolo[2,3-d]pyrimidin-4-yl]-N-[(1S)-1-(3-methoxyphenyl)ethyl]piperazine-1-carboxamide], for which the IC50 was 0.0001 to 1 µM.

Regarding `O=C(NCc1cccc(OC(F)F)c1)N1CCN(c2ncnc3[nH]c(-c4ccc(F)cc4)cc23)CC1` [P-0073, N-[[3-(difluoromethoxy)phenyl]methyl]-4-[6-(4-fluorophenyl)-7H-pyrrolo[2,3-d]pyrimidin-4-yl]piperazine-1-carboxamide], the IC50 fell in the range of 1 to 10 µM.

Take `O=C(NCc1cccc(OC(F)(F)F)c1)N1CCN(c2ncnc3[nH]c(-c4ccc(F)cc4)cc23)CC1` [P-0076, 4-[6-(4-fluorophenyl)-7H-pyrrolo[2,3-d]pyrimidin-4-yl]-N-[[3-(trifluoromethoxy)phenyl]methyl]piperazine-1-carboxamide]: the IC50 lay in the range of 1 to 10 µM.

Take `CCNC(=O)N1CCN(c2ncnc3[nH]c(-c4ccc(F)cc4)cc23)CC1` [P-0088, N-ethyl-4-[6-(4-fluorophenyl)-7H-pyrrolo[2,3-d]pyrimidin-4-yl]piperazine-1-carboxamide]: the IC50 was in the range of 1 to 10 µM.

Turning to `O=C(NCc1ccc(F)cc1)N1CCN(c2ncnc3[nH]c(-c4ccc(F)cc4)cc23)CC1` [P-0090, N-[(4-fluorophenyl)methyl]-4-[6-(4-fluorophenyl)-7H-pyrrolo[2,3-d]pyrimidin-4-yl]piperazine-1-carboxamide], the IC50 lay in the range of 0.0001 to 1 µM.

In the case of `COc1cccc(CNC(=O)N2CCN(c3ncnc4[nH]c(-c5ccc(F)cc5)cc34)CC2)n1` [P-0122, 4-[6-(4-fluorophenyl)-7H-pyrrolo[2,3-d]pyrimidin-4-yl]-N-[(6-methoxy-2-pyridyl)methyl]piperazine-1-carboxamide], the IC50 is 1 to 10 µM.

In the case of `O=C(NCc1ccc(F)cn1)N1CCN(c2ncnc3[nH]c(-c4cccnc4)cc23)CC1` [P-0124, N-[(5-fluoro-2-pyridyl)methyl]-4-[6-(3-pyridyl)-7H-pyrrolo[2,3-d]pyrimidin-4-yl]piperazine-1-carboxamide], the IC50 was 1 to 10 µM.

As a reminder, the IC50 is the concentration needed to halve the response being measured.
